Patent US12264173B2 (GILEAD SCIENCES, INC., priority 2020, dated 2025)
Where two headings read alike, the source gives them in different places.

Key:
Assay type in all cases: cell-based
RSV strain A2 = test: microbe, parasite or virus in culture; settings: Table 3, HEp-2 cells, RSV A2, 4 days, read-out: RSV HEp-2 EC50
Procedure, shortened: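 Cytopathic-effect protection assay: HEp-2 cells (50,000/mL) infected with pre-titered RSV A2 onto 3-fold serial compound dilutions, incubated 4 days at 37° C. Cell viability read by CellTiter-Glo luminescence; percent inhibition derived against 0% and 100% virus-inhibition controls.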

DENV2 replicon = test: DENV-2 Huh-7 Rep EC50 (replicon luminescence); settings: read-out: DENV-2 REP Huh7 EC50
Procedure, shortened: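 EC50 derived from luminescence dose-response, normalised to DMSO-only 0% inhibition wells, after 1.5 h with EnduRen substrate. Compounds were first exposed for 48 h at 37° C to DENV2 replicon Huh-7 cells (5,000/well).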

RSV A2 = test: RSV NHBE EC50 (RSV A2 antiviral assay in NHBE cells); settings: Table 3, NHBE cells, RSV A2, 4 days, read-out: RSV NHBE EC50
Procedure, shortened: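 Step 1: seed NHBE cells (7,500/well, BEGM) overnight. Step 2: add 3-fold diluted compound, DMSO 0.05%. Step 3: infect with RSV A2, 1×10^4.5 TCID/mL; incubate 4 days, 37° C. Step 4: CellTiter-Glo luminescence.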

HRV16 = HRV16 HeLa EC50 (cytopathic effect in H1-HeLa cells)
Procedure, shortened: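 Read-out is luminescent cell viability (CellTiter-Glo) after 96 h of infection at 33 °C, scaled between uninfected and infected-untreated wells. Before infection with titrated virus, compounds went onto H1-HeLa cells as triplicate 3-fold dilution series.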

[1] = human respiratory syncytial virus, HEp-2, 96 h
[2] = Dengue virus, DENV2, Huh-7, 48 h
[3] = human respiratory syncytial virus, NHBE, 96 h
[4] = 96 h, Table 3; H1-HeLa cells, 96 h; read-out: HRV16 HeLa EC50
[5] = Table 3, Huh-7 DENV2 replicon cells, 48 hours
[6] = Table 3; H1-HeLa cells, 96 h; read-out: HRV16 HeLa EC50

SMILES | EC50 (RSV strain A2; [1]) | EC50 (DENV2 replicon; [2]) | EC50 (RSV A2; [3]) | EC50 (HRV16; [4]) | EC50 (RSV strain A2) | EC50 (DENV2 replicon; [5]) | EC50 (RSV A2) | EC50 (HRV16; [6])
CC(C)OC(=O)[C@H](C)N[P@](=O)(OC[C@@]1(C#N)O[C@@H](c2ccc3c(N)ncnn23)[C@H](OC(=O)[C@@H](N)C(C)C)[C@@H]1OC(=O)[C@@H](N)C(C)C)Oc1ccccc1 [Example 157, (2R,3S,4S,5S)-5-(4-aminopyrrolo[2,1-f][1,2,4]triazin-7-yl)-2-cyano-2-((((S)-(((S)-1-isopropoxy-1-oxopropan-2-yl)amino)(phenoxy)phosphoryl)oxy)methyl)tetrahydrofuran-3,4-diyl (2S,2'S)-bis(2-amino-3-methylbutanoate)] | 227 nM | 25800 nM | 1590 nM | 1790 nM | – | – | – | –
CC(C)OC(=O)C(C)NP(=O)(OCC1(C#N)OC(c2ccc3c(N)ncnn23)C(OC(=O)C(C)C)C1OC(=O)C(C)C)Oc1ccc(C(=O)N(C)C)cc1 (single isomer, unassigned) [Example 179] | – | – | – | – | 161 nM | 29400 nM | 100 nM | 731 nM
COC(=O)[C@H](C)N[P@](=O)(OC[C@@]1(C#N)O[C@@H](c2ccc3c(N)ncnn23)[C@H](OC(=O)[C@@H](C)OC)[C@@H]1OC(=O)[C@@H](C)OC)Oc1ccccc1 [Example 166, (2R,3S,4S,5S)-5-(4-aminopyrrolo[2,1-f][1,2,4]triazin-7-yl)-2-cyano-2-((((S)-(((S)-1-methoxy-1-oxopropan-2-Yl)amino)(phenoxy)phosphoryl)oxy)methyl) tetrahydrofuran-3,4-diyl (2R,2′R)-bis(2-methoxypropanoate)] | 157 nM | 21700 nM | 112 nM | 1660 nM | – | – | – | –
C/C(=N\c1ncnn2c([C@@H]3O[C@](C#N)(COP(=O)(N[C@@H](C)C(=O)OC4CCOCC4)Oc4ccccc4)[C@@H](OC(=O)C(C)C)[C@H]3OC(=O)C(C)C)ccc12)N(C)C (stereo partly drawn) [Example 219, (2R,3S,4S,5S)-2-cyano-5-(4-(((E)-1-(dimethylamino)ethylidene)amino)pyrrolo[2,1-f][1,2,4]triazin-7-yl)-2-((((((S)-1-oxo-1-((tetrahydro-2H-pyran-4-yl)oxy)propan-2-yl)amino)(phenoxy)phosphoryl)oxy)methyl) tetrahydrofuran-3,4-diyl bis(2-methylpropanoate)] | – | – | – | – | 67 nM | 16400 nM | 82 nM | 356 nM
CCC(=O)OC1C(c2ccc3c(N)ncnn23)OC(C#N)(COP(=O)(NC(C)C(=O)OCC2CCC2)Oc2ccccc2)C1OC(=O)CC (centres unmarked) [Example 93] | – | – | – | – | 48 nM | 12800 nM | 25 nM | 171 nM
CC(C)OC(=O)C(C)NP(=O)(OCC1(C#N)OC(c2ccc3c(N)ncnn23)C(OC(=O)C(C)C)C1OC(=O)C(C)C)Oc1ccc(C(=O)N(C)C)cc1 (single isomer, unassigned) [Example 178] | – | – | – | – | 633 nM | 53200 nM | 163 nM | 1070 nM
CC(=O)O[C@H]1[C@H](c2ccc3c(N)ncnn23)O[C@](C#N)(CO[P@@](=O)(N[C@@H](C)C(=O)OCC2CC2)Oc2ccccc2)[C@H]1OC(C)=O [Example 102] | – | – | – | – | 178 nM | 39100 nM | 18 nM | 526 nM
COC(=O)[C@H](C)NP(=O)(OC[C@@]1(C#N)O[C@@H](c2ccc3c(N)ncnn23)[C@H](OC(C)=O)[C@@H]1OC(C)=O)Oc1ccccc1 (stereo partly drawn) [Example 129, (2R,3S,4S,5S)-5-(4-aminopyrrolo[2,1-f][1,2,4]triazin-7-yl)-2-cyano-2-((((((S)-1-methoxy-1-oxopropan-2-yl)amino)(phenoxy)phosphoryl)oxy)methyl)tetrahydrofuran-3,4-diyl diacetate] | 154 nM | 15500 nM | 77 nM | 1110 nM | – | – | – | –
